These results are taken from ChEMBL document CHEMBL1130231, “Betidamino acid scan of the GnRH antagonist acyline” (J Med Chem, 1997).

Holding throughout (assay type): functional, organism-based
Assay [1] relates to Rattus norvegicus. Kind of assay: Ratio of ovulated rats to total number of rats determined in a anti-ovulatory assay by administering 5 microg of compound; 1/8.
Assay [2] relates to Rattus norvegicus. In words: Ratio of ovulated rats to total number of rats determined in a anti-ovulatory assay by administering 10 ug of compound; 0/8.
The test system of assay [3] is Rattus norvegicus. Kind of assay: Ratio of ovulated rats to total number of rats determined in a anti-ovulatory assay by administering 2.5 microg of compound; 0/7.
For assay [4], the system named is Rattus norvegicus. In words: Ratio of ovulated rats to total number of rats determined in a anti-ovulatory assay by administering 0.5 microg of compound; 6/7.
The subject of assay [5] is Rattus norvegicus. In words: Ratio of ovulated rats to total number of rats determined in a anti-ovulatory assay by administering 1 microg of compound; 5/13.
The subject of assay [6] is Rattus norvegicus. In words: Ratio of ovulated rats to total number of rats determined in a anti-ovulatory assay by administering 10 microg of compound; 3/7.
Assay [7] concerns Rattus norvegicus. Kind of assay: Ratio of ovulated rats to total number of rats determined in a anti-ovulatory assay by administering 2.5 microg of compound; 0/8.
Assay [8] deals with Rattus norvegicus. Kind of assay: Ratio of ovulated rats to total number of rats determined in a anti-ovulatory assay by administering 1 microg of compound; 1/8.
Assay [9] relates to Rattus norvegicus. In words: Ratio of ovulated rats to total number of rats determined in a anti-ovulatory assay by administering 10 microg of compound; 8/8.
For assay [10], the system named is Rattus norvegicus. In words: Ratio of ovulated rats to total number of rats determined in a anti-ovulatory assay by administering 25 microg of compound; 6/8.

Activity calls are given as the source filed them. The calls are words filed in the database; no cut-off is given here.

On to `CC(=O)Nc1ccc(C[C@H](NC(=O)[C@H](CO)NC(=O)[C@H](Cc2cccnc2)NC(=O)[C@@H](Cc2ccc(Cl)cc2)NC(=O)[C@@H](Cc2ccc3ccccc3c2)NC(C)=O)C(=O)N[C@H](Cc2ccc(NC(C)=O)cc2)C(=O)N[C@@H](CC(C)C)C(=O)N[C@@H](CCCCNC(C)C)C(=O)N2CCC[C@@H]2C(=O)N[C@H](C)C(N)=O)cc1`, for which the ov. rat/total result in [1] and in [2] was “Active” in each case.
Take `CC(=O)Nc1ccc(C[C@H](NC(=O)[C@H](CO)NC(=O)[C@@H](Cc2cccnc2)NC(=O)[C@@H](Cc2ccc(Cl)cc2)NC(=O)[C@@H](Cc2ccc3ccccc3c2)NC(C)=O)C(=O)N[C@H](Cc2ccc(NC(C)=O)cc2)C(=O)N[C@@H](CC(C)C)C(=O)N[C@@H](CCCCNC(C)C)C(=O)N2CCC[C@@H]2C(=O)N[C@H](C)C(N)=O)cc1`: the ov. rat/total result in assay [3] is “Active”. The ov. rat/total entry in assay [4] was “inactive”. Also, the ov. rat/total entry in assay [5] was “Partially active”.
As for `CC(=O)Nc1ccc(C[C@H](NC(=O)[C@H](CO)NC(=O)[C@H](NC(=O)c2ccncc2)NC(=O)[C@@H](Cc2ccc(Cl)cc2)NC(=O)[C@@H](Cc2ccc3ccccc3c2)NC(C)=O)C(=O)N[C@H](Cc2ccc(NC(C)=O)cc2)C(=O)N[C@@H](CC(C)C)C(=O)N[C@@H](CCCCNC(C)C)C(=O)N2CCC[C@@H]2C(=O)N[C@H](C)C(N)=O)cc1` (single isomer, unassigned), the ov. rat/total result in assay [6] is “Partially active”.
Regarding `CC(=O)Nc1ccc(C[C@H](NC(=O)[C@H](CO)NC(=O)[C@@H](Cc2cccnc2)NC(=O)[C@@H](Cc2ccc(Cl)cc2)NC(=O)[C@@H](Cc2ccc3ccccc3c2)NC(C)=O)C(=O)N[C@H](Cc2ccc(NC(C)=O)cc2)C(=O)N[C@@H](CC(C)C)C(=O)N[C@@H](CCCCNC(C)C)C(=O)N2CCC[C@@H]2C(=O)N[C@H](C(N)=O)N(C)C=O)cc1`, the ov. rat/total result in assay [7] is “Active”. Also, the ov. rat/total result in assay [8] is “inactive”.
As to `CC(=O)Nc1ccc(C[C@H](NC(=O)[C@H](CO)NC(=O)[C@@H](NC(=O)[C@@H](Cc2ccc(Cl)cc2)NC(=O)[C@@H](Cc2ccc3ccccc3c2)NC(C)=O)N(C)C(=O)c2cccnc2)C(=O)N[C@H](Cc2ccc(NC(C)=O)cc2)C(=O)N[C@@H](CC(C)C)C(=O)N[C@@H](CCCCNC(C)C)C(=O)N2CCC[C@@H]2C(=O)N[C@H](C)C(N)=O)cc1` (single isomer, unassigned), the ov. rat/total entry in assay [9] and in assay [10] was “inactive” in each case.
